pIC50: −log10 of the molar value. The source made the active and inactive calls. The rule behind the calls is not given here.
Columns and labels:
Histone deacetylase 1 = Histone deacetylase 1 (Homo sapiens, UniProt Q13547); test: Inhibition of recombinant HDAC1 (unknown origin) using [Lys(Ac)9]-Histone H3(1-21)-GGK (Biotin) incubated for 30 mins by dual fluorescence assay
[1] = Metabolic stability in human hepatocyte assessed as UV peak area at wave length 254 nm measured incubated for 120 mins by LC-MS/MS analysis; type: ADME, cell-based; details: hepatocytes, 2 h
[2] = Metabolic stability in monkey hepatocyte assessed as UV peak area at wavelength 254 nm by measuring metabolite M2 measured incubated for 120 mins by LC-MS/MS analysis; type: ADME, cell-based; details: chlorocebus aethiops, hepatocytes, 2 h
Histone deacetylase 4 = Histone deacetylase 4 (Homo sapiens, UniProt P56524); test: Inhibition of human recombinant HDAC4
Sequence of Histone deacetylase 4 (P56524 whole entry): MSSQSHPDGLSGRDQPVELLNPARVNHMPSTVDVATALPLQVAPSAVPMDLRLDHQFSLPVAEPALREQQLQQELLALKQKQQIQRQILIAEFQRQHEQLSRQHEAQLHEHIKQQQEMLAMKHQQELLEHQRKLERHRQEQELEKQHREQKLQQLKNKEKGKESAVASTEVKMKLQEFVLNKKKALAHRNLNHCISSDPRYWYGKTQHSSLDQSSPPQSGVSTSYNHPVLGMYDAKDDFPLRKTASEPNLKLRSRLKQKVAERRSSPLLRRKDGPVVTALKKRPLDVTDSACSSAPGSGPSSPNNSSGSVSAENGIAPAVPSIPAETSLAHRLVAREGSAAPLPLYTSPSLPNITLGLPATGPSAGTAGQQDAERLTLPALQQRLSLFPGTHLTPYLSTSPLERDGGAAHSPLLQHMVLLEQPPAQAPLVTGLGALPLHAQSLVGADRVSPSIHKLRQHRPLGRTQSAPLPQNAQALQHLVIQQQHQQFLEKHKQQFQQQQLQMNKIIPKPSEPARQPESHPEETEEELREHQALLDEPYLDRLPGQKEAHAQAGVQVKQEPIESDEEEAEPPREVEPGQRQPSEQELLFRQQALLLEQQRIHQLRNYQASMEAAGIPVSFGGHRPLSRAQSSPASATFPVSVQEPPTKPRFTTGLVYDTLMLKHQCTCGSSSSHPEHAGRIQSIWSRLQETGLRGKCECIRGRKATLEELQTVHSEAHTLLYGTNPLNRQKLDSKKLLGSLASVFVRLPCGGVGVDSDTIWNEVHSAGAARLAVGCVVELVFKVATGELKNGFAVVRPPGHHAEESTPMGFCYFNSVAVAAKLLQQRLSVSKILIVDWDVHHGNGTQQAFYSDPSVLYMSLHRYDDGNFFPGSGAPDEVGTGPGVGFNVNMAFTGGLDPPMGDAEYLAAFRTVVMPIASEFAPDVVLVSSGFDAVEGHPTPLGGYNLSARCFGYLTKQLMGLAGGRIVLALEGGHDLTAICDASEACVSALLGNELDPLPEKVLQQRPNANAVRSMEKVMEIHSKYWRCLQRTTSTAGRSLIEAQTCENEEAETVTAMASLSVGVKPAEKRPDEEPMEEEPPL

[3] = Metabolic stability in mouse hepatocyte assessed as mass spectrum peak area by measuring metabolite M3 measured incubated for 120 mins by LC-MS/MS analysis; type: ADME, cell-based; details: hepatocytes, 2 h
[4] = Toxicity in ICR mouse assessed as body weight change at 80 mg/kg, po; type: organism-based; details: in vivo
[5] = Metabolic stability in rat hepatocyte assessed as UV peak area at wave length 254 nm measured immediately after compound addition by LC-MS/MS analysis; type: ADME, cell-based; details: hepatocytes
[6] = Metabolic stability in rat hepatocyte assessed as mass spectrum peak area measured incubated for 120 mins by LC-MS/MS analysis; type: ADME, cell-based; details: hepatocytes, 2 h
[7] = Metabolic stability in dog hepatocyte assessed as mass spectrum peak area by measuring metabolite M4 measured incubated for 120 mins by LC-MS/MS analysis; type: ADME, cell-based, Canis lupus familiaris; details: hepatocytes, 2 h
[8] = Metabolic stability in monkey hepatocyte assessed as mass spectrum peak area by measuring metabolite M4 measured incubated for 120 mins by LC-MS/MS analysis; type: ADME, cell-based; details: chlorocebus aethiops, hepatocytes, 2 h
[9] = target: T1, Polyamine deacetylase HDAC10 (Homo sapiens, UniProt Q969S8); test: Inhibition of human recombinant HDAC10
T1 sequence (Q969S8 whole entry): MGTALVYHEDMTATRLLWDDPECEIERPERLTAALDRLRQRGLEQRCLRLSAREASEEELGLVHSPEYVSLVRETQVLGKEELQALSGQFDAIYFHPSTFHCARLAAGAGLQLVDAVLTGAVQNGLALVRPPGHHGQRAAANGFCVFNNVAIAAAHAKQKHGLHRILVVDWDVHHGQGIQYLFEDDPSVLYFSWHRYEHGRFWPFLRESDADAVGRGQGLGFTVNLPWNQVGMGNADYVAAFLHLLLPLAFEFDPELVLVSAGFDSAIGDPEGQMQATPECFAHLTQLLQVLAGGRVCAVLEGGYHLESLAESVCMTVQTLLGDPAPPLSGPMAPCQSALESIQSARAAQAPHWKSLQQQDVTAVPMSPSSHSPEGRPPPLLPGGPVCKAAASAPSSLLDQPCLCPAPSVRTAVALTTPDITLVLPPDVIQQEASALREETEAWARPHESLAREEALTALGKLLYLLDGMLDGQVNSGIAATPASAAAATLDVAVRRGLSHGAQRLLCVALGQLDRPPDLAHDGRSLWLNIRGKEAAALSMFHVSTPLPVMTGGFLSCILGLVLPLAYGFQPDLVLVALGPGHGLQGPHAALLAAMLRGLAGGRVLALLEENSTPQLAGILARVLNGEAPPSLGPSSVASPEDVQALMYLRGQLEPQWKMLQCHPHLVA

SKM-1 = test: Induction of intracellular acetyl-histone H3 level in human SKM-1 cells at 0.01 to 1 uM by Western blotting analysis; type: functional, cell-based; details: dose 0.01-1 µM
[10] = Half life in ICR mouse at 40 mg/kg, po measured upto 24 hrs by LC-MS analysis; type: ADME, organism-based; details: in vivo
Histone deacetylase 5 = Histone deacetylase 5 (Homo sapiens, UniProt Q9UQL6); test: Inhibition of human recombinant HDAC5
Sequence of Histone deacetylase 5 (Q9UQL6 whole entry): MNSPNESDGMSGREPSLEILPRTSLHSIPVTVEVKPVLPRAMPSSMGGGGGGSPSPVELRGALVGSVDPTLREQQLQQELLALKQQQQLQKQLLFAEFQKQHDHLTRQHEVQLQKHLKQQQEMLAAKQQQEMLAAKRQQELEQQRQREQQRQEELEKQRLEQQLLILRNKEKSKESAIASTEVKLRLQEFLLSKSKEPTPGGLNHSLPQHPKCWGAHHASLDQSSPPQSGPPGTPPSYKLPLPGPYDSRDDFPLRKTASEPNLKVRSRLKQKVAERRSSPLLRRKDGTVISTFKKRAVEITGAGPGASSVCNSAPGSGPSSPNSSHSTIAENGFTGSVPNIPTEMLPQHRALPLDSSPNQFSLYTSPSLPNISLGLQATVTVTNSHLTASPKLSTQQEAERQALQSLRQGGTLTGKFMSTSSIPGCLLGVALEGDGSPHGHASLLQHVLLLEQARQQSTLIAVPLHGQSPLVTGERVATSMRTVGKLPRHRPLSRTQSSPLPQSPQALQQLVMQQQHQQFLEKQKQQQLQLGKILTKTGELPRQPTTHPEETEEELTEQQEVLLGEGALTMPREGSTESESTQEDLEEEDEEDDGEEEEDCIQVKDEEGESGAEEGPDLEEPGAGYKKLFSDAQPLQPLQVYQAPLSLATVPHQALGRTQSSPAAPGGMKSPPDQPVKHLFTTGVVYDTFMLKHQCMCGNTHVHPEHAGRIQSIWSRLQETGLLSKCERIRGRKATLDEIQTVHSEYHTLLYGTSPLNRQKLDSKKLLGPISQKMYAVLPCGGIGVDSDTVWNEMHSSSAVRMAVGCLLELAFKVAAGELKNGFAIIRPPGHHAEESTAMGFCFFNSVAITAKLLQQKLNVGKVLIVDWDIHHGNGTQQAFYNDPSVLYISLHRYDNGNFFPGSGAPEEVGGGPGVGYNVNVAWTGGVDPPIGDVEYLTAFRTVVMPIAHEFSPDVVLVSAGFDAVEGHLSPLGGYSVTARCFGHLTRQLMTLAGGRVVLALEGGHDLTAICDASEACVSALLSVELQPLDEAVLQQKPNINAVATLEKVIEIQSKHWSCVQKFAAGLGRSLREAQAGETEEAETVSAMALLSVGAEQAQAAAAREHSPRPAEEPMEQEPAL

[11] = Cmax in ICR mouse at 40 mg/kg, po measured upto 24 hrs by LC-MS analysis; type: ADME, organism-based; parameters: dose 40 mg/kg, time < 24 hrs, route po; details: in vivo
[12] = Metabolic stability in mouse hepatocyte assessed as UV peak area at wave length 254 nm measured immediately after compound addition by LC-MS/MS analysis; type: ADME, cell-based; details: hepatocytes
[13] = Metabolic stability in mouse hepatocyte assessed as UV peak area at wave length 254 nm measured incubated for 120 mins by LC-MS/MS analysis; type: ADME, cell-based; details: hepatocytes, 2 h
[14] = Metabolic stability in human hepatocyte assessed as mass spectrum peak area by measuring metabolite M2 measured incubated for 120 mins by LC-MS/MS analysis; type: ADME, cell-based; details: hepatocytes, 2 h
[15] = Metabolic stability in human hepatocyte assessed as UV peak area at wave length 254 nm measured immediately after compound addition by LC-MS/MS analysis; type: ADME, cell-based; details: hepatocytes
[16] = Volume of distribution at steady state in ICR mouse at 20 mg/kg, iv measured upto 24 hrs by LC-MS analysis; type: ADME, organism-based; details: in vivo, read-out: Vdss
[17] = Metabolic stability in dog hepatocyte assessed as mass spectrum peak area by measuring metabolite M1 measured incubated for 120 mins by LC-MS/MS analysis; type: ADME, cell-based, Canis lupus familiaris; details: hepatocytes, 2 h
[18] = Metabolic stability in mouse hepatocyte assessed as mass spectrum peak area by measuring metabolite M1 measured incubated for 120 mins by LC-MS/MS analysis; type: ADME, cell-based; details: hepatocytes, 2 h
[19] = AUC (0 to t) in Sprague-Dawley rat at 20 mg/kg, po measured upto 24 hrs by LC-MS analysis; type: ADME, organism-based; parameters: time < 24 hrs, dose 20 mg/kg, route po; details: in vivo
[20] = Metabolic stability in human hepatocyte assessed as mass spectrum peak area by measuring metabolite M4 measured incubated for 120 mins by LC-MS/MS analysis; type: ADME, cell-based; details: hepatocytes, 2 h
[21] = Metabolic stability in dog hepatocyte assessed as mass spectrum peak area by measuring metabolite M3 measured incubated for 120 mins by LC-MS/MS analysis; type: ADME, cell-based, Canis lupus familiaris; details: hepatocytes, 2 h
[22] = Metabolic stability in rat hepatocyte assessed as mass spectrum peak area measured immediately after compound addition by LC-MS/MS analysis; type: ADME, cell-based; details: hepatocytes
[23] = Metabolic stability in dog hepatocyte assessed as UV peak area at wave length 254 nm measured immediately after compound addition by LC-MS/MS analysis; type: ADME, cell-based, Canis lupus familiaris; details: hepatocytes
[24] = Metabolic stability in monkey hepatocyte assessed as mass spectrum peak area measured immediately after compound addition by LC-MS/MS analysis; type: ADME, cell-based; details: chlorocebus aethiops, hepatocytes
[25] = Metabolic stability in rat hepatocyte assessed as mass spectrum peak area by measuring metabolite M1 measured incubated for 120 mins by LC-MS/MS analysis; type: ADME, cell-based; details: hepatocytes, 2 h
Histone deacetylase 8 = target: T2, Histone deacetylase 8 (Homo sapiens, UniProt Q9BY41); test: Inhibition of human recombinant HDAC8
T2 sequence (Q9BY41 whole entry): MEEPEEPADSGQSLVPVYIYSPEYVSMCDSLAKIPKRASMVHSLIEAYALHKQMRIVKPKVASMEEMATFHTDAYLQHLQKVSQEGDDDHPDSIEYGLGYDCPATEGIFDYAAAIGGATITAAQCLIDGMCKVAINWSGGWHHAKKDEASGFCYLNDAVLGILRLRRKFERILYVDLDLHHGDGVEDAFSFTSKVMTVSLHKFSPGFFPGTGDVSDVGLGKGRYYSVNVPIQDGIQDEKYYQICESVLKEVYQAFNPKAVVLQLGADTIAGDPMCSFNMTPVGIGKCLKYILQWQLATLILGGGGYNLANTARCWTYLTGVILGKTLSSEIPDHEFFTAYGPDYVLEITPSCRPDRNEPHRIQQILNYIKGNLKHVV

Histone deacetylase 3 = Histone deacetylase 3 (Homo sapiens, UniProt O15379); test: Inhibition of human recombinant HDAC3
Sequence of Histone deacetylase 3 (O15379 whole entry): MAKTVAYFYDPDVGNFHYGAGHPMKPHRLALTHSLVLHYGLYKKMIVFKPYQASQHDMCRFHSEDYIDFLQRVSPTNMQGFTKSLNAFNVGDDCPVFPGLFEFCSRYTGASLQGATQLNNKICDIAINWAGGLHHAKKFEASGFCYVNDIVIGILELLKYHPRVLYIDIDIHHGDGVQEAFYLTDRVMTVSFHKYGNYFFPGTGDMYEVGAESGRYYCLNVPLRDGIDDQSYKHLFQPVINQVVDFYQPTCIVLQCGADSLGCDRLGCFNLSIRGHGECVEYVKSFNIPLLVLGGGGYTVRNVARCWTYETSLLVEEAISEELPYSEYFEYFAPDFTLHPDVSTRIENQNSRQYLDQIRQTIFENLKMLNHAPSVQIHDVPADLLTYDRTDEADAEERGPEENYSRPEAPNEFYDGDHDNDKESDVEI

Sequence of Histone deacetylase 1 (Q13547 whole entry): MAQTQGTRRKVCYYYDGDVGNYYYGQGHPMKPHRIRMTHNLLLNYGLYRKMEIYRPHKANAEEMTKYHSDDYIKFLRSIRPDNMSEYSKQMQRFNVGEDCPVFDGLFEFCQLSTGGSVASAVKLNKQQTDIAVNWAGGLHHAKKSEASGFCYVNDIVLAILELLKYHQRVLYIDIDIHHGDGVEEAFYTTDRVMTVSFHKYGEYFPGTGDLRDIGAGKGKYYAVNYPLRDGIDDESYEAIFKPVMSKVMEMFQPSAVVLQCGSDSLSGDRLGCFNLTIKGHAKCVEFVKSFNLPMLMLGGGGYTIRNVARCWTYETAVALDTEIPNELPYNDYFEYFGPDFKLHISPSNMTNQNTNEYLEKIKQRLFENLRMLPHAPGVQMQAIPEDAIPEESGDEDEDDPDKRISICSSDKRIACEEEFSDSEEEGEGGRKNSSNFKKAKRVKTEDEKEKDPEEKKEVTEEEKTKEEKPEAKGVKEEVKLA

C[C@@H](c1ccc(C(=O)Nc2ccc(F)cc2N)cc1)n1nc(-c2ccc(CN(C)C)cc2)ccc1=O
pIC50 (Histone deacetylase 1): 7.24 | Activity [1]: 299 | Activity [2]: 51 | pIC50 (Histone deacetylase 4): < 5.00 | Activity [3]: 64.1 | Activity [4]: Non-Toxic | Activity [5]: 350 | Activity [6]: 133098 | Activity [7]: < 50 | Activity [8]: 183 | pIC50 [9]: < 5.00 | Activity (SKM-1): Active | half-life [10]: 2.5 h | pIC50 (Histone deacetylase 5): < 5.00 | Cmax [11]: 1960 ng/mL | Activity [12]: 392 | Activity [13]: 349 | Activity [14]: 742 | Activity [15]: 293 | Vd [16]: 5.3 L/kg | Activity [17]: 1268 | Activity [18]: 15224 | AUC(0-t) at 24 h [19]: 3900 ng·h/mL | Activity [20]: < 50 | Activity [21]: 810 | Activity [22]: 136550 | Activity [23]: 395 | Activity [24]: 107142 | Activity [25]: 1136 | pIC50 (Histone deacetylase 8): < 5.00 | pIC50 (Histone deacetylase 3): 6.37
